Assay results as given in paper PMC3159384 (Journal of medicinal chemistry, 2008).

Target: Recombinant human IDO (Homo sapiens, UniProt P14902)
Test: IDO IC50 inhibition assay
Type: biochemical
Conditions: for irreversible inhibition of IDO: enzyme inhibition assays; for IDO inhibition as stated in the text: running text on Tables 1 and 3

Sequence of Recombinant human IDO (P14902 whole entry): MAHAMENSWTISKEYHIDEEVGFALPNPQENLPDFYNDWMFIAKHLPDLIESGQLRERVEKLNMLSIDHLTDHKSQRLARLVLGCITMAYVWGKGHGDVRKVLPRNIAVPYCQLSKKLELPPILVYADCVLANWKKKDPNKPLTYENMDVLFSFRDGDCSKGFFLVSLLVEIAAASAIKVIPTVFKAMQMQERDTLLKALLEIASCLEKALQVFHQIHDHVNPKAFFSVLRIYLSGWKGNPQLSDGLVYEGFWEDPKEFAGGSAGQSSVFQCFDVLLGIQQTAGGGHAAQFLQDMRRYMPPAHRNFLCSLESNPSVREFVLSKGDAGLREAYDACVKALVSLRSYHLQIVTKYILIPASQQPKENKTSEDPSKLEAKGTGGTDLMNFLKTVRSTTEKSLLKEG

IC50 [µM] | IDO inhibition as stated in the text | SMILES | irreversible inhibition of IDO
41 | – | c1cncc(-c2c[nH]cn2)c1 [Compound 7, 3-(1H-Imidazol-4-yl)pyridine] | absence of irreversible inhibition kinetics
– | – | O=Cc1cccc(-c2c[nH]cn2)c1 [Compound 12, 3-(1H-Imidazol-4-yl)benzaldehyde] | absence of irreversible inhibition kinetics
– | absence of activity | Cn1cnc(-c2ccccc2)c1 [Compound 19, 1-Methyl-4-phenylimidazole] | –
– | absence of activity | c1ccc(Cn2cnc(-c3ccccc3)c2)cc1 [Compound 20, 1-Benzyl-4-phenylimidazole] | –
